One assay deals with T1, ZAP-70 (Homo sapiens, UniProt P43403).
T1 construct: endogenous in cells; host or cells: cell lysate
T1 sequence (P43403 1-619): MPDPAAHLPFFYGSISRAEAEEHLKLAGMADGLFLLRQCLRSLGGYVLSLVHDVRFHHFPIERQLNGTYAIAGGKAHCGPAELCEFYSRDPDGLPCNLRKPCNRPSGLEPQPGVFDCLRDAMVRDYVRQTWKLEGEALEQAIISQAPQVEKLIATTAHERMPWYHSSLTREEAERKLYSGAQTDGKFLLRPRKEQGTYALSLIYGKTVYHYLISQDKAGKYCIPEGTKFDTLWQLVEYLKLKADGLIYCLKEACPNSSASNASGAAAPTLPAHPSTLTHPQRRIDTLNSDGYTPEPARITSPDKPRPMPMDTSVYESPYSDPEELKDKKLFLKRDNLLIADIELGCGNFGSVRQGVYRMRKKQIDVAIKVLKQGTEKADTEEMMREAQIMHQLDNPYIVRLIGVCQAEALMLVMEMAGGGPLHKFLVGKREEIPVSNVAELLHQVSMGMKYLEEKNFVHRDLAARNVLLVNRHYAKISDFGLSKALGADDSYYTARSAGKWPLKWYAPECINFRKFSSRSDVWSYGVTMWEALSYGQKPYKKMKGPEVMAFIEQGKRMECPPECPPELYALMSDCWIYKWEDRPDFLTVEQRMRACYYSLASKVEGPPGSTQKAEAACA
Description: ZAP-70 kinobeads assay. Format: binding. To be noted: cell lysate. The procedure, abridged: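 Competition binding: compounds at various concentrations incubated with cell lysate plus affinity matrix bearing immobilized aminopyrido-pyrimidine ligand 24. ZAP-70 retained on beads eluted and quantified by specific-antibody dot blot with infrared detection.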

Assay [1] concerns Calcium Ion Release in Cells. The assay is described as follows: calcium release assay (measurement of calcium ion release in cells). Type of assay: cell-based. To be noted: calcium release assay as described in WO-A 2009/080638.

Where a name gives a salt, the structure may show the parent alone.

What is called IC50 is the concentration needed to halve the response being measured. With `COc1ccc(Nc2nc(Nc3cc(OCC(N)=O)ccc3OC)ncc2Cl)c(NS(C)(=O)=O)c1` [Example 108, 2-(3-((5-chloro-4-((4-methoxy-2-(methylsulfonamido)phenyl)amino)pyrimidin-2-yl)amino)-4-methoxyphenoxy)acetamide], the IC50 on ZAP-70 was ≤ 100 nM; in assay [1] it was ≤ 1000 nM.
Take `COc1ccc(Nc2nc(Nc3cnc(C)cc3C)ncc2Cl)c(NS(C)(=O)=O)c1` [Example 71, N-(2-(5-chloro-2-(4,6-dimethylpyridin-3-ylamino)pyrimidin-4-ylamino)-5-methoxyphenyl)methanesulfonamide]: the concentration for half-maximal inhibition (IC50) on ZAP-70 was ≤ 100 nM; in assay [1] it was ≤ 1000 nM.
For `COc1ccc(Nc2nc(Nc3ccc(OCCN)cc3F)ncc2Cl)c(NS(C)(=O)=O)c1` [Example 69, N-(2-(2-(4-(2-aminoethoxy)-2-fluorophenylamino)-5-chloropyrimidin-4-ylamino)-5-methoxyphenyl)methanesulfonamide], the IC50 against ZAP-70 was ≤ 100 nM; in assay [1], ≤ 1000 nM.
Taken in the same sequence, the figures for `COc1ccc(Nc2nc(Nc3cnc(OCCO)cc3C)ncc2Cl)c(NS(C)(=O)=O)c1` [Example 85, N-(2-(5-chloro-2-(6-(2-hydroxyethoxy)-4-methylpyridin-3-ylamino)pyrimidin-4-ylamino)-5-methoxyphenyl)methanesulfonamide] were 100 to 1000 nM and ≤ 1000 nM.
As to `COc1ccc(Nc2nc(Nc3cc(OCCO)ccc3OC)ncc2F)c(NS(C)(=O)=O)c1` [Example 106, N-(2-(5-fluoro-2-(5-(2-hydroxyethoxy)-2-methoxyphenylamino)pyrimidin-4-ylamino)-5-methoxyphenyl)methanesulfonamide], the IC50 was 100 to 1000 nM at ZAP-70 and ≤ 1000 nM in assay [1].
Turning to `COc1ccc(Nc2nc(Nc3cnc(OC)cc3C)ncc2Cl)c(NS(C)(=O)=O)c1` [Example 74, N-(2-(5-chloro-2-(6-methoxy-4-methylpyridin-3-ylamino)pyrimidin-4-ylamino)-5-methoxyphenyl)methanesulfonamide], the IC50 against ZAP-70 was 100 to 1000 nM; in assay [1], ≤ 1000 nM.
`COc1ccc(Nc2nc(Nc3cccc(OCCO)c3C)ncc2Cl)c(NS(C)(=O)=O)c1` [Example 65, N-(2-(5-chloro-2-(3-(2-hydroxyethoxy)-2-methylphenylamino)pyrimidin-4-ylamino)-5-methoxyphenyl)methanesulfonamide]: the half-maximal inhibitory concentration (IC50) at ZAP-70 was ≤ 100 nM; in assay [1], ≤ 1000 nM.
Consider `COc1ccc(Nc2nc(Nc3cccnc3C)ncc2Cl)c(NS(C)(=O)=O)c1` [Example 77, N-(2-(5-chloro-2-(2-methylpyridin-3-ylamino)pyrimidin-4-ylamino)-5-methoxyphenyl)methanesulfonamide], for which the IC50 was 100 to 1000 nM at ZAP-70 and ≤ 1000 nM in assay [1].
For the compound `COc1ccc(Nc2nc(Nc3cc(OCCO)ccc3Cl)ncc2Cl)c(NS(C)(=O)=O)c1` [Example 111, N-(2-((5-chloro-2-((2-chloro-5-(2-hydroxyethoxy)phenyl)amino)pyrimidin-4-yl)amino)-5-methoxyphenyl)methanesulfonamide], the IC50 was 100 to 1000 nM against ZAP-70 and ≤ 1000 nM in assay [1].
Consider `COc1ccc(Nc2nc(Nc3cccnc3OC)ncc2Cl)c(NS(C)(=O)=O)c1` [Example 79, N-(2-(5-chloro-2-(2-methoxypyridin-3-ylamino)pyrimidin-4-ylamino)-5-methoxyphenyl)methanesulfonamide], for which the 50% inhibitory concentration (IC50) against ZAP-70 was 100 to 1000 nM; in assay [1], ≤ 1000 nM.
Regarding `COc1ccc(Nc2nc(Nc3ccc(OC)c(OC)c3OC)ncc2Cl)c(NS(C)(=O)=O)c1` [Example 32, N-(2-(5-chloro-2-(2,3,4-trimethoxyphenylamino)pyrimidin-4-ylamino)-5-methoxyphenyl)methanesulfonamide hydrochloride], the IC50 is 100 to 1000 nM against ZAP-70 and ≤ 1000 nM in assay [1].
With `COc1ccc(Nc2nc(Nc3ccc(C)nc3C)ncc2Cl)c(NS(C)(=O)=O)c1` [Example 75, N-(2-(5-chloro-2-(2,6-dimethylpyridin-3-ylamino)pyrimidin-4-ylamino)-5-methoxyphenyl)methanesulfonamide], the results for the IC50 (against ZAP-70; in assay [1]) were ≤ 100 nM and ≤ 1000 nM, respectively.
Taken in the same sequence, the figures for `COc1ccc(Nc2nc(Nc3ccncc3C)ncc2Cl)c(NS(C)(=O)=O)c1` [Example 70, N-(2-(5-chloro-2-(3-methylpyridin-4-ylamino)pyrimidin-4-ylamino)-5-methoxyphenyl)methanesulfonamide] were ≤ 100 nM and ≤ 1000 nM.
With `COc1ccc(Nc2nc(Nc3cc(OCCO)ccc3C)ncc2Cl)c(NS(C)(=O)=O)c1` [Example 88, N-(2-(5-chloro-2-(5-(2-hydroxyethoxy)-2-methylphenylamino)pyrimidin-4-ylamino)-5-methoxyphenyl)methanesulfonamide], the IC50 on ZAP-70 was ≤ 100 nM; in assay [1], ≤ 1000 nM.
In the case of `COc1ccc(Nc2nc(Nc3cc(OC)c(CCO)cc3OC)ncc2Cl)c(NS(C)(=O)=O)c1` [Example 105, N-(2-((5-chloro-2-((4-(2-hydroxyethyl)-2,5-dimethoxyphenyl)amino)pyrimidin-4-yl)amino)-5-methoxyphenyl)methanesulfonamide], the concentration for half-maximal inhibition (IC50) against ZAP-70 was 100 to 1000 nM; in assay [1], ≤ 1000 nM.
Regarding `COc1ccc(Nc2nc(Nc3ccc(OCCO)cc3OC)ncc2Cl)c(NS(C)(=O)=O)c1` [Example 4, N-(2-(5-chloro-2-(4-(2-hydroxyethoxy)-2-methoxyphenylamino)pyrimidin-4-ylamino)-5-methoxyphenyl)methanesulfonamide], the figures for the IC50 (against ZAP-70; in assay [1]) were ≤ 100 nM and ≤ 1000 nM, respectively.

The record behind these values is patent US20120142667A1, “PYRIMIDINE DERIVATIVES AS ZAP-70 INHIBITORS” (priority 2009, published 2012).
